# Reference: patent US20240417410A1, “TRICYCLIC COMPOUNDS FOR THE TREATMENT OF CANCER” (Hoffmann-La Roche Inc., priority 2023, published 2024)
# Assays:
# [1] = test system: AGS cells (KRAS G12D); assay: Cell viability assay (Cell Counting Kit-8, 3-day); assay type: cell-based, human; settings: Homo sapiens, 72 h, 72 hrs incubation
# Method: (§1) The purpose of this cellular assay was to determine the effects of test compounds on the proliferation of human cancer cell lines NCI-H358 (ATCC-CRL5807) cells, AGS (ATCC-CRL-1739) cells, SW620 (ATCC-CCL-227) over a 3-day treatment period by quantifying the amount of NADPH present at endpoint using Cell Counting Kit-8.
# (§2) Cells were seeded at 5,000 cells/well (NCI-H358), 2,000 cells/well (AGS) 2,000 cells/well (SW620) in 96-well assay plates (Corning-3699) and incubated overnight. On the day of the assay, diluted compounds were then added in a final concentration of 0.5% DMSO. After 72 hrs incubation, a tenth of the volume of cell counting kit 8 (Dnjindo-CK04) was added into each well. Read the signal (OD450 minus OD650) using EnVision after 2 hrs incubation. IC50 was determined by fitting a 4-parameter sigmoidal concentration response model.
# [2] = test system: NCI-H358 cells (KRAS G12C); assay: Cell viability assay (Cell Counting Kit-8, 3-day); assay type: cell-based, human; settings: Homo sapiens, NCI-H358, 72 h, NCI-H358, 72 hrs incubation
# Method: as §1, §2
# [3] = test system: SW620 cells (KRAS G12V); assay: Cell viability assay (Cell Counting Kit-8, 3-day); assay type: cell-based, human; settings: Homo sapiens, SW-620; SW620, 72 hrs incubation
# Method: as §1, §2
# [4] = test system: phosphorylation of ERK, KRAS G12C in NCI-H358 cells; assay: pERK inhibition assay; assay type: cell-based; settings: Homo sapiens, NCI-H358, 4 h
# Outline: (§3)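 Phospho-ERK quantified by in-cell ELISA with TMB read-out at OD450 following 4 h compound exposure (final 0.5% DMSO). Cell lines were SW620 (KRAS G12V), AGS (G12D) and NCI-H358 (G12C), grown in RPMI-1640 with 10% FBS. A 4-parameter sigmoidal model gave the IC50.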
# [5] = test system: phosphorylation of ERK, KRAS G12V in SW620; assay: pERK inhibition assay; assay type: cell-based; settings: Homo sapiens, SW-620, 4 h, SW620 cells
# Outline: as §3
# [6] = test system: phosphorylation of ERK, KRAS G12D in AGS cells; assay: pERK inhibition assay; assay type: cell-based; settings: Homo sapiens, AGS, 4 h
# Outline: as §3
# [7] = biological target: KRAS G12C-BRAF complex (Homo sapiens (Human), UniProt P01116+P62937, G12C); assay: KRAS-BRAF with CYPA (500 nM) interaction assay (TR-FRET, Example 136); assay type: biochemical; settings: KRAS G12C-BRAF disruption
# Chain of KRAS G12C-BRAF complex (P01116-2 other isoform, or with tags, fused parts or gaps G12C): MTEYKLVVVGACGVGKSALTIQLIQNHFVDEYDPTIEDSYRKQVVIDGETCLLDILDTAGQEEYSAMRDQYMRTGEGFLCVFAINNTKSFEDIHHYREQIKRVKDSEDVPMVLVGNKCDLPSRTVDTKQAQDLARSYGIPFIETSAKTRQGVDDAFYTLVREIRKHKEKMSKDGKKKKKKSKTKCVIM
# Chain of KRAS G12C-BRAF complex (P62937 whole entry): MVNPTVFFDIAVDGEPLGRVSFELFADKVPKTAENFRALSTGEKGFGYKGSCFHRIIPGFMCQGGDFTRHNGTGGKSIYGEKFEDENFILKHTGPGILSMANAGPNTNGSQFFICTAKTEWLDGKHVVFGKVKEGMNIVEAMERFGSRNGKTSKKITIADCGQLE
# Method: In this example, TR-FRET was also used to measure the compound or compound-CYPA dependent disruption of the KRAS G12C-BRAF complex. This protocol was also used to measure disruption of KRAS G12D or KRAS G12V binding to BRAF by a compound of the invention, respectively. In assay buffer containing 25 mM HEPES PH=7.4 (4-(2-hydroxyethyl)-1-piperazineethanesulfonic acid, Thermo, 15630080), 0.002% Tween20, 0.1% BSA, 100 mM NaCl, 5 mM MgCl2, 10 μM GMPPNP (Guanosine 5′-[β,γ-imido]triphosphate trisodium salt hydrate, Sigma, G0635), […] 384-well assay plate at final concentrations of 50 nM, 6.25 nM and 1 nM, respectively. Compound was present in plate wells as a 16-point 3-fold dilution series starting at a final concentration of 10 μM and incubated for 3 hours. A mixture of MAb Anti-6His-XL665 (Cisbio, 61HISXLB) and Mab anti-GST-TB cryptate (Cisbio, 61GSTTLB) was then added at a final concentration of 6.67 nM and 0.21 nM, respectively, and the plate was incubated for an additional 1.5 hours. TR-FRET signal was read on a PHERstar FSX microplate reader (Ex320 nm, Em 665/615 nm). Compounds that facilitate disruption of the KRAS-BRAF complex were identified as those eliciting a decrease in the TR-FRET ratio relative to DMSO control wells.
SMILES,IC50 [1] [nM],IC50 [2] [nM],IC50 [3] [nM],IC50 [4] [nM],IC50 [5] [nM],IC50 [6] [nM],IC50 [7] [nM]
"CO[C@@H](C)c1ncc(N2CCN3CCOC[C@@H]3C2)cc1-c1c2c3cc(cc4c3n1CCC4)-c1csc(n1)C[C@H](NC(=O)[C@H]1C[C@@H]1c1cncnc1)C(=O)N1CCC[C@H](N1)C(=O)OCC(C)(C)C2 (atropisomer, axis not shown; (M)) [Example 105, (1S,2S)-N-[(7S,13S)-(20M)-20-[5-[(9αS)-3,4,6,7,9,9a-hexahydro-1H-pyrazino[2,1-c][1,4]oxazin-8-yl]-2-[(1S)-1-methoxyethyl]-3-pyridyl]-17,17-dimethyl-8,14-dioxo-15-oxa-4-thia-9,21,30,31-tetrazahexacyclo[23.3.1.1^2,5.1^9,13.0^19,27.0^21,26]hentriaconta-1 (28),2,5 (31),19,25 (29),26-hexaen-7-yl]-2-pyrimidin-5-yl-cyclopropanecarboxamide]",6.8,1.5,0.6,1.5,0.4,2.2,13.3
"CO[C@@H](C)c1ncc(N2CCN3CCOC[C@@H]3C2)cc1-c1c2c3cc(cc4c3n1CCC4)-c1csc(n1)C[C@H](NC(=O)[C@H]1[C@@H]3COC[C@@H]31)C(=O)N1CCC[C@H](N1)C(=O)OCC(C)(C)C2 (atropisomer, axis not shown; (M)) [Example 40, (1S,5R,6r)-N-[(7S,13S)-(20M)-20-[5-[(9αS)-3,4,6,7,9,9a-hexahydro-1H-pyrazino[2,1-c][1,4]oxazin-8-yl]-2-[(1S)-1-methoxyethyl]-3-pyridyl]-17,17-dimethyl-8,14-dioxo-15-oxa-4-thia-9,21,30,31-tetrazahexacyclo[23.3.1.1^2,5.1^9,13.0^19,27.0^21,26]hentriaconta-1 (28),2,5 (31),19,25 (29),26-hexaen-7-yl]-3-oxabicyclo[3.1.0]hexane-6-carboxamide]",11.8,3,0.8,0.6,0.4,5.6,13
"CO[C@@H](C)c1ncc(N2CCOCC2)cc1-c1c2c3cc(cc4c3n1CCO4)-c1csc(n1)C[C@H](NC(=O)[C@H]1C[C@@H]1c1cccnc1)C(=O)N1CCC[C@H](N1)C(=O)OCC(C)(C)C2 (atropisomer, axis not shown; (M)) [Example 97, (1S,2S)-N-[(7S,13S)-(20M)-20-[2-[(1S)-1-methoxyethyl]-5-morpholino-3-pyridyl]-17,17-dimethyl-8,14-dioxo-15,24-dioxa-4-thia-9,21,30,31-tetrazahexacyclo[23.3.1.12.19,13 019,27 21,26,]hentriaconta-1 (28),2,5 (31), 19,25 (29),26-hexaen-7-yl]-2-(3-pyridyl)cyclopropanecarboxamide]",2.6,1.9,0.3,0.4,0.3,1.4,14.4
"CO[C@@H](C)c1ncc(N2CCOCC2)cc1-c1c2c3cc(cc4c3n1CCO4)-c1csc(n1)C[C@H](NC(=O)[C@H]1[C@H](C)[C@@H]1C)C(=O)N1CCC[C@H](N1)C(=O)OCC(C)(C)C2 (atropisomer, axis not shown; (M)) [Example 68, (1r,2R,3S)-N-[(7S,13S)-(20M)-20-[2-[(1S)-1-methoxyethyl]-5-morpholino-3-pyridyl]-17,17-dimethyl-8,14-dioxo-15,24-dioxa-4-thia-9,21,30,31-tetrazahexacyclo[23.3.1.1^2,5.1^9,13.0^19,27.0^21,26]hentriaconta-1 (29),2,5 (31),19,25,27-hexaen-7-yl]-2,3-dimethyl-cyclopropanecarboxamide]",7.8,3.2,0.5,0.2,0.3,3.9,16.8
"CO[C@@H](C)c1ncc(N2CCN(C)CC2)cc1-c1c2c3cc(cc4c3n1CCC4)-c1csc(n1)C[C@H](NC(=O)[C@H]1[C@@H]3CC(F)(F)C[C@@H]31)C(=O)N1CCC[C@H](N1)C(=O)OCC(C)(C)C2 (atropisomer, axis not shown; (M)) [Example 48, (1S,5R)-3,3-difluoro-N-[(7S,13S)-(20M)-20-[2-[(1S)-1-methoxyethyl]-5-(4-methylpiperazin-1-yl)-3-pyridyl]-17,17-dimethyl-8,14-dioxo-15-oxa-4-thia-9,21,30,31-tetrazahexacyclo[23.3.1.1^2,5.1^9,13.0^19,27.0^21,26]hentriaconta-1 (28),2,5 (31), 19,25 (29),26-hexaen-7-yl]bicyclo[3.1.0]hexane-6-carboxamide]",26.5,9.5,1.7,1.2,1,10.1,4.4
"CO[C@@H](C)c1ncc(N2CCN(C3CC3)CC2)cc1-c1c2c3cc(cc4c3n1CCO4)-c1csc(n1)C[C@H](NC(=O)[C@H]1[C@H](C)[C@@H]1C)C(=O)N1CCC[C@H](N1)C(=O)OCC(C)(C)C2 (atropisomer, axis not shown; (M)) [Example 106, (1r,2R,3S)-N-[(7S,13S)-(20M)-20-[5-(4-cyclopropylpiperazin-1-yl)-2-[(1S)-1-methoxyethyl]-3-pyridyl]-17,17-dimethyl-8,14-dioxo-15,24-dioxa-4-thia-9,21,30,31-tetrazahexacyclo[23.3.1.1^2,5.1^9,13.0^19,27.0^21,26]hentriaconta-1 (28),2,5 (31),19,25 (29),26-hexaen-7-yl]-2,3-dimethyl-cyclopropanecarboxamide]",8.7,4.4,0.4,1.1,0.4,3.1,10.8
"CO[C@@H](C)c1ncc(N2CCN(C)CC2)cc1-c1c2c3cc(cc4c3n1CCC4)-c1csc(n1)C[C@H](NC(=O)C13C4CC1CC3C4)C(=O)N1CCC[C@H](N1)C(=O)OCC(C)(C)C2 (stereo partly drawn) [Example 72, N-[(7S,13S)-(20M)-20-[2-[(1S)-1-methoxyethyl]-5-(4-methylpiperazin-1-yl)-3-pyridyl]-17,17-dimethyl-8,14-dioxo-15-oxa-4-thia-9,21,30,31-tetrazahexacyclo[23.3.1.1^2,5.1^9,13.0^19,27.0^21,26]hentriaconta-1 (28),2,5 (31), 19,25 (29),26-hexaen-7-yl]tricyclo[3.1.1.0^3,6]heptane-6-carboxamide]",,,,2.3,4.8,41.5,31.5
"CO[C@@H](C)c1ncc(N2CCN(C)CC2)cc1-c1c2c3cc(cc4c3n1CCC4)-c1csc(n1)C[C@H](NC(=O)C1CCOCC1)C(=O)N1CCC[C@H](N1)C(=O)OCC(C)(C)C2 (atropisomer, axis not shown; (M)) [Example 77, N-[(7S,13S)-(20M)-20-[2-[(1S)-1-methoxyethyl]-5-(4-methylpiperazin-1-yl)-3-pyridyl]-17,17-dimethyl-8,14-dioxo-15-oxa-4-thia-9,21,30,31-tetrazahexacyclo[23.3.1.1^2,5.1^9,13.0^19,27.0^21,26]hentriaconta-1 (28),2,5 (31),19,25 (29),26-hexaen-7-yl]tetrahydropyran-4-carboxamide]",,,,4.4,4,26.1,41.8
